Test results as given in ChEMBL document CHEMBL1132866, “Synthesis of glycolipid analogues that disrupt binding of HIV-1 gp120 to galactosylceramide” (Bioorg Med Chem Lett, 2000).

Target: Envelope glycoprotein gp160 (Human immunodeficiency virus type 1 group M subtype B (isolate HXB2)(HIV-1), UniProt P04578)
Experiment: Binding affinity towards HIV glycoprotein gp120

Kd: 11.4 nM
Compound: CCCCCCCCCCCCC/C=C/[C@@H](O)[C@H](CO[C@@H]1O[C@@H](CO)[C@H](O)[C@H](O)[C@@H]1O)NC(=O)OCCCCCCCCCCCCCCCCCCCCCCC
